Reference: ChEMBL document CHEMBL2062508, “Lasionectrin, a naphthopyrone from a Lasionectria sp” (J Nat Prod, 2012)

Test system: Plasmodium falciparum
Assay: Antiplasmodial activity against Plasmodium falciparum 3D7 infected in human erythrocytes by lactate dehydrogenase assay
Format: functional, organism-based

- IC50: 11 µM
SMILES: CCC[C@@H]1C[C@H]2OC(=O)c3c(cc4cc(OC)cc(O)c4c3O)[C@H]2O1 [LASIONECTRIN]
